Columns and labels:
[1] = system: type 1 diabetes patients with peripheral neuropathy; assay: Adverse events incl. severe hypoglycemic events and hypoglycemic coma; conditions: for AEs of any severity: Tooth ache: Gastrointestinal Disorders
[2] = system: type 1 diabetes patients with peripheral neuropathy; assay: ECG and vital signs; type: in vivo, human; conditions: for BPd (diastolic blood pressure), change from baseline to 6 months treatment (visit 4), Mean ± SD / BPd (diastolic blood pressure), change from baseline to 6 months treatment (visit 4), Median / BPs (systolic blood pressure), change from baseline to 6 months treatment (visit 4), Mean ± SD / BPs (systolic blood pressure), change from baseline to 6 months treatment (visit 4), Median / Heart rate, change from baseline to 6 months treatment (visit 4), Mean ± SD / Heart rate, change from baseline to 6 months treatment (visit 4), Median / QTc-interval Bazett, change from baseline to 6 months treatment (visit 4), Mean ± SD / QTc-interval Bazett, change from baseline to 6 months treatment (visit 4), Median / QTc-interval Fredericia, change from baseline to 6 months treatment (visit 4), Mean ± SD / QTc-interval Fredericia, change from baseline to 6 months treatment (visit 4), Median: PP data set
Procedure: At the final clinical visit (at 6 months from S/B visit), a safety assessment including physical examination, ECG, vital signs, body weight, and sampling for clinical safety laboratory tests were performed. Furthermore, the metabolic control (HbA1c) was assessed, as well as C-peptide antibodies and C-peptide levels in plasma. All efficacy variables including SCV, SNAP, MCV, MDL, CMAP, QST were performed (two examinations within 2-14 days). E/I ratio and neurological status were also assessed. All used and unused clinical trial medication was returned by the patient and drug accountability was performed by study staff. The patient diary was reviewed including recording of concomitant medication, AEs, and drug accountability. FIG. 1 summarizes the study procedures and assessments conducted at each time point.

C-peptide antibodies = assay: Antibody formation against C-peptide, ELISA; type: in vivo, human; conditions: baseline and after 3 and 6 months of C-peptide treatment
Description: C-peptide plasma samples, C-peptide antibodies, and markers for atherosclerosis were processed (centrifuged, etc.) and stored frozen until transport to a central lab. HLA typing samples were shipped to a central lab for processing and storage until analysis. All samples there were labelled uniquely, including information about screening number and sample time.
Samples for the assessment of antibody formation were collected at baseline and at visits 2 and 4. An appropriate enzyme-linked immunoabsorbant assay (ELISA) method was developed and assessments carried out.

[3] = Low-dose, ITT data set, Infections and infestations
[4] = Low-dose, PP data set, Infections and infestations
[5] = Low-dose, PP data set, Injury poisoning, procedural complications
[6] = Low-dose, PP data set, Investigations

SMILES: CC(C)C[C@H](NC(=O)[C@H](C)NC(=O)[C@H](CC(C)C)NC(=O)[C@@H]1CCCN1C(=O)[C@H](CCC(N)=O)NC(=O)[C@H](CC(C)C)NC(=O)[C@H](CO)NC(=O)CNC(=O)[C@H](C)NC(=O)CNC(=O)[C@@H]1CCCN1C(=O)CNC(=O)CNC(=O)CNC(=O)[C@H](CC(C)C)NC(=O)[C@H](CCC(=O)O)NC(=O)[C@@H](NC(=O)[C@H](CCC(N)=O)NC(=O)CNC(=O)[C@@H](NC(=O)[C@H](CCC(N)=O)NC(=O)[C@H](CC(C)C)NC(=O)[C@H](CC(=O)O)NC(=O)[C@H](CCC(=O)O)NC(=O)[C@H](C)NC(=O)[C@@H](N)CCC(=O)O)C(C)C)C(C)C)C(=O)N[C@@H](CCC(=O)O)C(=O)NCC(=O)N[C@@H](CO)C(=O)N[C@@H](CC(C)C)C(=O)N[C@@H](CCC(N)=O)C(=O)O [C-peptide, Recombinant human C-peptide]
- AEs of severe intensity (S): Sepsis ([1]; High-dose, ITT data set, Infections and infestations): S (1)
- AEs of any severity: Tooth ache ([1]; High-dose, PP data set): 3
- AEs of any severity: Urinary tract infection ([1]; High-dose, PP data set, Infections and infestations): 1
- AEs of any severity: Skin infection ([1]; High-dose, PP data set, Skin and subcutaneous tissue disorders): 2
- AEs of moderate intensity (M): Acute HIV infection [1, 3]: M (1)
- AEs of moderate intensity (M): Borrelia infection [1, 3]: M (1)
- AEs of moderate intensity (M): Herpes zoster [1, 3]: M (1)
- AEs of moderate intensity (M): Skin infection ([1]; Low-dose, ITT data set, Skin and subcutaneous tissue disorders): M (1)
- AEs of any severity: Tooth ache ([1]; Low-dose, PP data set): 2
- AEs of any severity: Acute HIV infection [1, 4]: 1
- AEs of any severity: Borrelia infection [1, 4]: 1
- AEs of any severity: Herpes simplex [1, 4]: 1
- AEs of any severity: Herpeszoster [1, 4]: 1
- AEs of any severity: Influenza [1, 4]: 1
- AEs of any severity: Nasopharyngitis [1, 4]: 31
- AEs of any severity: Otitis [1, 4]: 1
- AEs of any severity: Pharyngitis [1, 4]: 1
- AEs of any severity: Sinusitis [1, 4]: 4
- AEs of any severity: Skin infection [1, 4]: 5
- AEs of any severity: Tonsilitis [1, 4]: 1
- AEs of any severity: Upper respiratory tract infection [1, 4]: 3
- AEs of any severity: Urinary tract infection [1, 4]: 3
- AEs of any severity: Joint sprain ankle [1, 5]: 1
- AEs of any severity: Rib fracture/injury [1, 5]: 1
- AEs of any severity: Skin injury [1, 5]: 2
- AEs of any severity: Elevated serum creatinine [1, 6]: 1
- AEs of any severity: Hepatic enzyme increase [1, 6]: 2
- AEs of any severity: Hyperkalaemia [1, 6]: 1
- AEs of any severity: Weight increased [1, 6]: 1
- Deaths ([1]; during the study): No deaths
- BPd (diastolic blood pressure), change from baseline to 6 months treatment (visit 4), Mean ± SD ([2]; High-dose C-peptide, n = 39): −2.6 ± 8.0 mm Hg
- BPd (diastolic blood pressure), change from baseline to 6 months treatment (visit 4), Median ([2]; High-dose C-peptide, n = 39): −1.0 mm Hg
- BPs (systolic blood pressure), change from baseline to 6 months treatment (visit 4), Mean ± SD ([2]; High-dose C-peptide, n = 39): −8.8 ± 10.0 mm Hg
- BPs (systolic blood pressure), change from baseline to 6 months treatment (visit 4), Median ([2]; High-dose C-peptide, n = 39): −8.0 mm Hg
- Heart rate, change from baseline to 6 months treatment (visit 4), Mean ± SD ([2]; High-dose C-peptide, n = 39): −3.2 ± 10.0 bpm
- Heart rate, change from baseline to 6 months treatment (visit 4), Median ([2]; High-dose C-peptide, n = 39): −4.0 bpm
- QTc-interval Bazett, change from baseline to 6 months treatment (visit 4), Mean ± SD ([2]; High-dose C-peptide, n = 39): -4.5 ± 20.3 ms
- QTc-interval Bazett, change from baseline to 6 months treatment (visit 4), Median ([2]; High-dose C-peptide, n = 39): 0.0 ms
- QTc-interval Fredericia, change from baseline to 6 months treatment (visit 4), Mean ± SD ([2]; High-dose C-peptide, n = 39): -0.5 ± 16.2 ms
- QTc-interval Fredericia, change from baseline to 6 months treatment (visit 4), Median ([2]; High-dose C-peptide, n = 39): 0.0 ms
- Decrease in systolic blood pressure compared to the low-dose C-peptide group ([2]; High-dose C-peptide, p<0.004, not different from placebo): significantly greater decrease
- BPd (diastolic blood pressure), change from baseline to 6 months treatment (visit 4), Mean ± SD ([2]; Low-dose C-peptide, n = 53): −2.7 ± 8.2 mm Hg
- BPd (diastolic blood pressure), change from baseline to 6 months treatment (visit 4), Median ([2]; Low-dose C-peptide, n = 53): −1.0 mm Hg
- BPs (systolic blood pressure), change from baseline to 6 months treatment (visit 4), Mean ± SD ([2]; Low-dose C-peptide, n = 53): −2.1 ± 12.8 mm Hg
- BPs (systolic blood pressure), change from baseline to 6 months treatment (visit 4), Median ([2]; Low-dose C-peptide, n = 53): −1.0 mm Hg
- Heart rate, change from baseline to 6 months treatment (visit 4), Mean ± SD ([2]; Low-dose C-peptide, n = 53): −0.9 ± 8.2 bpm
- Heart rate, change from baseline to 6 months treatment (visit 4), Median ([2]; Low-dose C-peptide, n = 53): −2.0 bpm
- QTc-interval Bazett, change from baseline to 6 months treatment (visit 4), Mean ± SD ([2]; Low-dose C-peptide, n = 53): -0.1 ± 17.5 ms
- QTc-interval Bazett, change from baseline to 6 months treatment (visit 4), Median ([2]; Low-dose C-peptide, n = 53): 0.0 ms
- QTc-interval Fredericia, change from baseline to 6 months treatment (visit 4), Mean ± SD ([2]; Low-dose C-peptide, n = 53): 0.9 ± 14.1 ms
- QTc-interval Fredericia, change from baseline to 6 months treatment (visit 4), Median ([2]; Low-dose C-peptide, n = 53): 1.3 ms
- Changes in heart rate, blood pressure, and QTc ([2]; any of the three treatment groups, 6 months): nor were there any significant changes
- Abnormalities in ECG ([2]; during study medication treatment): no clinically significant abnormalities
- Antibody reactivity to C-peptide (C-peptide antibodies): no or very weak reactivity

Reference: patent US8410049B2, “Methods and kits for preventing hypoglycemia” (Cebix, priority 2009, dated 2013)
